# Laboratory results published in patent publication US7977384B1, “Anticancer tobacco cembranoids” (The University of Louisiana at Monroe, priority 2007, dated 2011).
# Where two headings read alike, the source gives them in different places. Ends that are not written are not given here.
# Tests used:
# [1] = test system: highly malignant +SA mouse mammary epithelial cell line; experiment: Antiproliferative MTT assay on +SA mammary epithelial cells; type: cell-based; conditions: for IC50: 4-day culture, MTT
# Protocol: The antiproliferative effects of semisynthetic derivatives were tested in culture on the highly malignant +SA mouse mammary epithelial cell line maintained on serum-free media and containing 10 ng/mL EGF and 10 μg/mL insulin as mitogens. […] After a 4-day culture period, viable +SA cell number was determined by the 3-(4,5-dimethylthi-azol-2yl)-2,5-diphenyl tetrazolium bromide (MTT) colorimetric assay.
# PC-3M cells [2] = experiment: MTT proliferation assay, prostate cell line PC-3M; type: cell-based, human; conditions: 50 nM dose
# Protocol: Proliferation of PC-3M MTT Assays. The growth of prostate cell line PC-3M was measured by 3-(4,5-dimethylthi-azol-2yl)-2,5-diphenyl tetrazolium bromide (MTT) assay. Exponentially growing cells were plated in a 96-well plate at a density of 8×10^3 cells per well and allowed to attach for 24 hours. Complete growth medium was replaced with 100 μl of RPMI serum-free medium (GIBCO-Invitrogen, NY) and culture continued at 37° C. under 5% CO2. After 24 hours of culture, the cells were treated with MTT solution at 37° C. for 4 hours. The color reaction was stopped by the addition of solubilization/stop solution (100 μl/well), and the incubation at 37° C. continued to completely dissolve the formazan product. Absorbance of the samples was determined at 595 nm with an ELISA plate reader (Bio-Rad, Hercules, Calif.).
# PC-3M cells [3] = experiment: […] invasion assay; type: cell-based, human
# Protocol: Invasion assays were conducted in 24-well, two compartmented, invasion chambers sold under the trademark “[sequence]” and available from Becton Dickinson, Bedford, Mass. Exponentially growing prostate cancer cell line was serum-starved for 24 hours with basal RPMI medium containing no serum or growth factors (but containing 0.1% BSA, 10 mM HEPES, 4 mM L-glutamine, 100 IU/mL penicillin G and 100 mg/mL streptomycin). The cells were then harvested and seeded at a density of 25×10^3 cells/well in the upper insert of the [sequence] invasion chamber. The lower chamber received the chemo-attractant medium, which consisted of 90% basal RPMI medium and 10% conditioned medium from the cultures of PC-3M cells expressing active Gas protein. The incubations were carried out for 24 hours, after which the [sequence] […] The number of cells migrated on the outer bottom side of the insert was counted under the microscope in six or more randomly selected fields (magnification: 100×). The final results were expressed as mean +/− SEM per 100× field. […]
# To correct this probability, the growth rate of PC-3M cells was determined under identical culture conditions. […] Mean percent increase in the cell number was determined at the end of the incubation period by counting the net increase in the number of cells. […]
# PC-3M cells [4] = experiment: Transepithelial resistance (TER), stability of junctional complexes; type: cell-based, human
# Protocol: Stability of junctional complexes can be estimated by the measurement of transepithelial resistance (TER). Cells were plated at confluency and grown on six well Transwell filters (0.4 μm pore size) in complete medium. TER values were measured in duplicate wells in every 12 hours using EVOM voltohmmeter (World Precision Instruments). The TER values were normalized to the area of the monolayer filter, and calculated by subtracting the blank values from the filter and bathing medium. All cell culture media were supplemented with 25 mM Hepes, pH 7.4, and the integrity and cell density of monolayers were carefully monitored during TER measurement studies.
# [5] = Substrate control (tested compound in blank media without microorganisms); type: physicochemical; conditions: 14 days
# Text: This conclusion was based on the rapid enzymatic actetate hydrolysis by most microbial species during biocatalytic screening while compound 22 was stable for 14 days in substrate control (tested compound in blank media without microorganisms).
# PC-3M cells [6] = experiment: Permeability assay (paracellular diffusion of dextran); type: cell-based, human; conditions: CT alone
# Protocol: Permeability assay (Paracellular diffusion of Dextran). Cells were plated at confluency and grown on 12 well Transwell filters in complete medium for optimum TER development. Tetramethyl-rhodamine-dextran, with an average molecular mass of 4 kDa (available from Sigma in St. Louis, Mo.) dissolved in Hanks' Balanced Salt Solution (HBSS) to a concentration of 1 mg/ml was added to the upper chamber. The lower chamber was replaced with HBSS. At various time intervals, 100 μl aliquots were collected from the lower chamber and assayed […] spectrophotometer using excitation 530 and emission 590.
# PC-3M cells [7] = experiment: Growth rate of PC-3M cells by cell counting (correction for the invasion assay); type: cell-based, human; conditions: CT 50 nM, 1-24 hours; vehicle control=1
# Protocol: To correct this probability, the growth rate of PC-3M cells was determined under identical culture conditions. 25×10^3 cells were plated at hourly intervals in six-well dishes and cultured with/without CT (50 nM) for 1-24 hours. Mean percent increase in the cell number was determined at the end of the incubation period by counting the net increase in the number of cells. […] This correction was applied to the results of invasion assays.
# [8] = 15-40 μM dose, compared to vehicle controls
compound,measurement,setting,value
"CC(=O)/C=C/C(CC/C(C)=C/CC/C(C)=C/C(C)=O)C(C)C (stereo not shown) [Compound 31, (3E,7E,12E)-11-isopropyl-4,8-dimethylpentadeca-3,7,12-triene-2,14-dione]",antiproliferative activity,[1]; [8],potent antiproliferative activity
"CC(=O)O[C@H]1/C=C(\C)CC[C@@H]2OC(=N)S[C@@]2(C)CC[C@@H](C(C)C)/C=C/[C@@](C)(O)C1 [Compound 28, 6-O-acetyl-(1S,2E,4S,6R,7Z,11S,12S)-2,7-cembradiene-11,12-oxathiaol-21-imino-4,6-diol]",antiproliferative activity,[1],devoid of activity
"CC(=O)O[C@H]1/C=C(\C)CC/C=C(\C)[C@@H](O)C[C@@H](C(C)C)/C=C/[C@@](C)(O)C1 [Compound 26, (1S,2E,4S,6R,7E,11E,13S)-2,7,11-cembratriene-4,6,13-triol-6-O-acetate]",antiproliferative activity,[1],much more active than the 13R
same,IC50,[1],20 µM
same,antiproliferative activity,[1]; [8],potent antiproliferative activity
"C/C1=C\[C@H](O)C[C@@](C)(O)/C=C/[C@H](C(C)C)C[C@@H](O)/C(C)=C/CC1 [Compound 7, (1S,2E,4R,6R,7E,11E,13R)-2,7,11-cembratriene-4,6,13-triol]",cytotoxicity,PC-3M cells [2],without cytotoxicity
same,anti-invasive activity,PC-3M cells [3]; 50 nM dose,potent anti-invasive activity
"CCNC(=O)O[C@H]1/C=C(/C)CC/C=C(\C)CC[C@@H](C(C)C)/C=C/[C@](C)(O)C1 [Compound 9, 6-O-[N-(ethyl)carbamoyl](1S,2E,4R,6R,7Z,11E)-2,7,11-cembratriene-4,6-diol]",stabilization of junctional complexes,PC-3M cells [4]; baseline and CT-stimulated TER and paracellular permeability,stabilized junctional complexes
"CC(=O)O[C@H]1/C=C(\C)CC/C=C(\C)[C@H](O)C[C@@H](C(C)C)/C=C/[C@@](C)(O)C1 [Compound 25, (1S,2E,4S,6R,7E,11E,13R)-2,7,11-cembratriene-4,6,13-triol-6-O-acetate]",IC50,[1],30 µM
same,antiproliferative activity,[1]; [8],potent antiproliferative activity
"C/C1=C\C(=O)C[C@](C)(O)/C=C/[C@H](C(C)C)CC/C(C)=C/CC1 [Compound 29, (1S,2E,4S,7E,11E)-2,7,11-cembratriene-4-ol-6-one]",antiproliferative activity,[1],low antiproliferative activity
"C/C1=C/C(=O)C[C@](C)(O)/C=C/[C@H](C(C)C)CC/C(C)=C/CC1 [Compound 30, (1S,2E,4S,6R,7E,11E)-2,7,11-cembratriene-4-ol-6-one]",antiproliferative activity,[1],potent antiproliferative agent
same,antiproliferative activity,[1]; [8],potent antiproliferative activity
same,IC50,"[1]; Mus musculus, Epithelial cell, 96 h",15 µM
same,activity relative to parent compound 21,[1]; at higher doses,no more active
"CC(=O)O[C@H]1/C=C(/C)CC/C=C(\C)CC[C@@H](C(C)C)/C=C/[C@@](C)(O)C1 [Compound 22, 6-O-acetyl-(1S,2E,4S,6R,7Z,11E)-2,7,11-cembratriene-4,6-diol]",antiproliferative activity,[1],reduced activity
same,stability in substrate control,[5],stable
"CC(C)=CCC/C(C)=C/CC/C(C)=C/CC[C@]1(C)CCc2cc(O)cc(C)c2O1 [δ-tocotrienol, reference compound]",IC50,[1],7 µM
"Calcitonin (CGNLSTCMLGTYTQDFNKFHTFPQTAIGVGAP; ends and bridges not checked; cysteine pairing not given here; UniProt P01258 85-116, looked up) [CT, reference compound]",increase in the number of invaded cells,PC-3M cells [3]; pooled data of multiple experiments,two-fold
same,effect on TER of PC-3M cell cultures,PC-3M cells [4]; 50 nM CT,dramatic reduction
same,paracellular permeability of PC-3M cells,PC-3M cells [6],increased
same,"relative CT-induced increase in cell number, pooled results of all time points",PC-3M cells [7],1.19
